# Columns and labels:
# [1] = Tmax in rat at 10 mg/kg, po; type: ADME, organism-based; parameters: dose 10 mg/kg, route oral; details: in vivo
# [2] = Half life in dog at 0.5 mg/kg, iv and 1 mg/kg, po; type: ADME, organism-based, Canis lupus familiaris; details: in vivo
# [3] = Half life in rat at 1 mg/kg, iv and 10 mg/kg, po; type: ADME, organism-based; details: in vivo
# [4] = Tmax in dog at 0.5 mg/kg, po; type: ADME, organism-based, Canis lupus familiaris; parameters: dose 0.5 mg/kg, route oral; details: in vivo
# [5] = Apparent permeability from apical to basolateral side of human Caco2 cells; details: Caco-2
# [6] = Oral bioavailability in dog at 1 mg/kg; type: ADME, organism-based, Canis lupus familiaris; details: in vivo
# [7] = Plasma protein binding in dog at 0.5 mg/kg, iv and 1 mg/kg, po; type: ADME, organism-based, Canis lupus familiaris; details: read-out: PPB (converted)
# Canis familiaris [8] = experiment: Unbound clearance in dog at 0.5 mg/kg, iv and 1 mg/kg, po; type: ADME, organism-based, Canis lupus familiaris; details: in vivo
# [9] = Intrinsic clearance in human liver microsomes assessed per mg of protein; type: ADME, Microsome
# Rattus norvegicus [10] = experiment: Unbound clearance in rat at 1 mg/kg, iv and 10 mg/kg, po; type: ADME, organism-based; details: in vivo
# [11] = Apparent permeability from basolateral to apical side of human Caco2 cells; details: Caco-2
# [12] = Volume of distribution in dog at 0.5 mg/kg, iv and 1 mg/kg, po; type: ADME, organism-based, Canis lupus familiaris; details: in vivo
# [13] = Plasma protein binding in rat at 1 mg/kg, iv and 10 mg/kg, po; type: ADME, organism-based; details: read-out: PPB (converted)
# [14] = Oral bioavailability in rat at 10 mg/kg; type: ADME, organism-based; details: in vivo
# [15] = Intrinsic clearance in rat liver microsomes assessed per mg of protein; type: ADME, Microsome
# Canis familiaris [16] = experiment: fCmax in dog at 0.5 mg/kg, po; type: ADME, organism-based, Canis lupus familiaris; parameters: dose 0.5 mg/kg, route oral; details: in vivo
# [17] = Clearance in rat at 1 mg/kg, iv and 10 mg/kg, po; type: ADME, organism-based; details: in vivo
# [18] = Absorption in dog at 0.5 mg/kg, iv and 1 mg/kg, po; type: ADME, organism-based, Canis lupus familiaris; details: in vivo, read-out: Activity
# [19] = Absorption in rat at 1 mg/kg, iv and 10 mg/kg, po; type: ADME, organism-based; details: in vivo, read-out: Activity
# Rattus norvegicus [20] = experiment: fCmax in rat at 10 mg/kg, po; type: ADME, organism-based; parameters: dose 10 mg/kg, route oral; details: in vivo
# [21] = Intrinsic clearance in dog liver microsomes assessed per mg of protein; type: ADME, Canis lupus familiaris, Microsome
smiles,measurement,setting,value
Cc1nnc(C(C)C)n1[C@@H]1C[C@H]2CC[C@@H](C1)N2CC[C@H](NC(=O)C1CCC(F)(F)CC1)c1ccccc1 [MARAVIROC],Tmax,[1],2 h
same,half-life,[2],2.3 h
same,half-life,[3],2.3 h
same,Tmax,[4],1.5 h
same,Papp A→B,[5],< 1 ×10⁻⁶ cm/s
same,bioavailability,[6],42%
same,fraction unbound,[7],0.4
same,CL,Canis familiaris [8],53 mL/min/kg
same,microsomal CLint,[9],49 µL/min/mg
same,CL,Rattus norvegicus [10],137 mL/min/kg
same,Papp B→A,[11],12 ×10⁻⁶ cm/s
same,Vd,[12],4.3 L/kg
same,fraction unbound,[13],0.54
same,bioavailability,[14],6%
same,microsomal CLint,[15],< 6 µL/min/mg
same,Cmax_unbound,Canis familiaris [16],80 nM
same,clearance,[17],74 mL/min/kg
same,Fa,[18],70%
same,Fa,[19],20%
same,Cmax_unbound,Rattus norvegicus [20],73 nM
same,microsomal CLint,[21],< 9 µL/min/mg
